Converted amounts (≈) assume the structure as drawn. “And” between values parts separate entries of the source, which are not always exact repeats. Equal entries are not always repeated. Where two headings read alike, the source gives them in different places.
Columns and labels:
[1] = cited from earlier work
[2] = −20° C. in the absence of light and oxygen; cited from earlier work
[3] = test system: HIV-1ΔtatΔrev; format: cell-based
[4] = test system: HIV; details: hypericin with “molecular flashlight”, cell culture in vitro; cited from earlier work

| Compound | solubility ([1]; DMSO) | storage stability [2] | HIV p24 concentration as a function of time after infection ([3]; day 0 (inoculum), hypericin exposed to the light (positive control)) | HIV p24 concentration as a function of time after infection ([3]; day 0 (inoculum), not exposed to light, hypericin 5 μmol, 2 h 37° C., replicates 1-3) | HIV p24 concentration as a function of time after infection ([3]; day 3, hypericin exposed to the light (positive control)) | HIV p24 concentration as a function of time after infection ([3]; day 3, not exposed to light, hypericin 5 μmol, 2 h 37° C., replicates 1-3) | HIV p24 concentration as a function of time after infection ([3]; day 6, hypericin exposed to the light (positive control)) | HIV p24 concentration as a function of time after infection ([3]; day 6, not exposed to light, hypericin 5 μmol, 2 h 37° C., replicates 1-3, listed as Hyp only) | HIV p24 concentration as a function of time after infection ([3]; day 9, hypericin exposed to the light (positive control)) | HIV p24 concentration as a function of time after infection ([3]; day 9, not exposed to light, hypericin 5 μmol, 2 h 37° C., replicates 1-3, listed as Hyp only) | HIV p24 concentration as a function of time after infection ([3]; day 13, hypericin exposed to the light (positive control)) | HIV p24 concentration as a function of time after infection ([3]; day 13, not exposed to light, hypericin 5 μmol, 2 h 37° C., replicates 1-3, listed as Hyp only) | HIV p24 concentration as a function of time after infection ([3]; day 16, hypericin exposed to the light (positive control)) | HIV p24 concentration as a function of time after infection ([3]; day 16, not exposed to light, hypericin 5 μmol, 2 h 37° C., replicates 1-3, listed as Hyp only) | HIV p24 concentration as a function of time after infection ([3]; day 20, hypericin exposed to the light (positive control)) | HIV p24 concentration as a function of time after infection ([3]; day 20, not exposed to light, hypericin 5 μmol, 2 h 37° C., replicates 1-3, listed as Hyp only) | effect on host cells [4] | solubility in DMSO ([1]; DMSO) | solubility in methanol ([1]; methanol) |
| --- | --- | --- | --- | --- | --- | --- | --- | --- | --- | --- | --- | --- | --- | --- | --- | --- | --- | --- | --- |
| Cc1cc(O)c2c(=O)c3c(O)cc(O)c4c5c(O)cc(O)c6c(=O)c7c(O)cc(C)c8c1c2c(c34)c(c78)c65 [hypericin, Hypericin] | soluble in DMSO | stable | 1 ng/mL | 1 ng/mL | 0.05 ng/mL | 0.05 ng/mL | 0.05 ng/mL | 19.34 ng/mL and 12.13 ng/mL and 11 ng/mL | 3 ng/mL | 1,055 ng/ml and 831 ng/ml and 1,120 ng/ml | 2.9 ng/mL | 1,985 ng/ml and 3,501 ng/ml and 3,270 ng/ml | 0.05 ng/mL | 1,870 ng/ml and 1543 ng/ml and 923 ng/ml | 6.6 ng/mL | 1,763 ng/ml and 2,789 ng/ml and 2,775 ng/ml | without harming these cells |  |  |
| O=C(O)C1CSC(c2nc3ccc(O)cc3s2)=N1 [D-luciferin, 4,5-Dihydro-2-(6-hydroxy-2-benzothiazolyl)-4-thiazolecarboxylic acid] |  |  |  |  |  |  |  |  |  |  |  |  |  |  |  |  |  | 50 mg/mL (≈ 178 mM) | 10 mg/mL (≈ 35.7 mM) |
